Measured values: patent publication US20240164369A1, “MESENCHYMAL STEM CELLS FOR USE IN INCREASING EX-VIVO ORGAN LIFE” (Amniotics AB, priority 2021, published 2024)

Tests used:
[1] = tested on: granulocytes and macrophages among human PBMCs activated with aCD3/aCD28; assay: PBMC:MSC co-culture, macrophage activation status after 24 hours (FACS); assay type: cell-based; conditions: Prednisolone 125 nM
Description: (§1) Following activation, cells were analysed for effects on cellular composition after 24 hours and for effects on cellular composition and cell proliferation using CFSE after 72 hours. In addition, supernatants collected after 24 hours of activation were analysed for cytokine levels using Luminex.
(§2) Peripheral Blood Mononuclear Cells (PBMCs) were isolated from leucocyte concentrate from three different donors (acquired from Blodcentralen, Lunds Universitetssjukhus, Lund, Sweden) through gradient centrifugation at 400×g for 40 minutes using Ficoll. Red blood cells (RBCs) were lysed using BD Pharmlyse buffer 10× diluted in milliQ water for 3 minutes at room temperature (RT). Cells were washed and the isolated PBMCs were pooled. Cell concentration was determined using a Scepter cell counter (Millipore Merck, MA. USA). Cells were diluted to 1×10^7 cells/ml in PBS. Pooled PBMCs were split into 2 different tubes. Cells in tube 1 was stained with CFSE at 5 μM for 5 minutes (dark, RT). CFSEstained cells were washed with an equal volume of FBS to stop the reaction and washed again with PBS. Cells in tube two was left in PBS. […]
(§3) Following 24 hours of incubation, cells in FACS/Luminex plates were stained with antibodies detecting CD73, CD4, CD8, CD80, CD206, CD163 and PD-1 in staining buffer (PBS supplemented with 1% BSA). […] 150 μl was analysed from each sample.

[2] = tested on: T cells among human PBMCs activated with aCD3/aCD28; assay: PBMC:MSC co-culture, T cell composition and CFSE proliferation after 72 hours
Description: as §1
(§4) Peripheral Blood Mononuclear Cells (PBMCs) were isolated from leucocyte concentrate from three different donors (acquired from Blodcentralen, Lunds Universitetssjukhus, Lund, Sweden) through gradient centrifugation at 400×g for 40 minutes using Ficoll. Red blood cells (RBCs) were lysed using BD Pharmlyse buffer 10× diluted in milliQ water for 3 minutes at room temperature (RT). Cells were washed and the isolated PBMCs were pooled. Cell concentration was determined using a Scepter cell counter (Millipore Merck, MA. USA). Cells were diluted to 1×10^7 cells/ml in PBS. Pooled PBMCs were split into 2 different tubes. Cells in tube 1 was stained with CFSE at 5 μM for 5 minutes (dark, RT). CFSEstained cells were washed with an equal volume of FBS to stop the reaction and washed again with PBS. Cells in tube two was left in PBS.
When plating controls, cells were spun down and diluted in M3 or M4 at 4*10^6 cells/ml, with a total amount of cells at 4*10^5 cells/well. 100 μl PBMCs were added per well. […] Medium was added to unstimulated control wells (700 μl/well). […]

[3] = tested on: T cells among human PBMCs activated with aCD3/aCD28; assay: PBMC:MSC co-culture, T cell activation status after 24 hours (FACS)
Description: as §1, §2, §3

[4] = tested on: granulocytes and macrophages among human PBMCs activated with aCD3/aCD28; assay: PBMC:MSC co-culture, macrophage composition and CFSE proliferation after 72 hours; assay type: cell-based
Description: as §1, §4
When plating controls, cells were spun down and diluted in M3 or M4 at 4*10^6 cells/ml, with a total amount of cells at 4*10^5 cells/well. 100 μl PBMCs were added per well. […] Medium was added to unstimulated control wells (700 μl/well). Cells were incubated for 24 or 72 hours at 37° ° C., 5% CO2. See also FIG. 23.
After 72 hours of incubation, CFSE stained cells were stained with CD4, CD8, CD80, CD206 and CD163 in staining buffer. Briefly, cells were transferred to V bottom plates, centrifuged at 360×g for 2 min. Cells were washed in PBS, centrifuged at 360×g for 2 min at 4° C. Supernatant was flicked off and surface markers were added. Cells were incubated at +4° C. for 20 minutes. After incubation, cells were washed 1× in PBS, centrifuged at 360×g for 2 min at 4° ° C. Cells were resuspended in PBS and acquired using the Attune Nxt flow cytometer. Compensation was performed using beads • AbC Total Compensation capture beads and negative beads for surface markers. For CFSE compensation, newly CFSE stained cells were used. Since compensation was done using both beads and cells, FSC and SSC were changed and adjusted to beads or cells. Lasers were not changed after compensation. 2.3.4 Cytokine Analysis after 24 Hours of Activation (Luminex)
Graphs were performed using Prism 8 for Mac OS X (GraphPad Software, San Diego, CA, USA). Results are presented as mean values±SEM, if not otherwise stated. Dot plots were acquired from analysis using FlowJo v10.6.1 for Mac (BD, New Jersey, USA).

[5] = tested on: human PBMCs activated with aCD3/aCD28; assay: cytokine analysis in co-culture supernatant after 24 hours (Luminex); assay type: cell-based; conditions: media 3
Description: 100 μl PBMCs were added per well. […] See also FIG. 23. Supernatant (24 hours incubation) was analysed for cytokines using the 12-[…]-12 Luminex kit. All reagents, standard and samples were prepared at room temperature and according to manufacturer's instruction. Briefly, 50 μl of standard or sample was added to wells. Microparticles were added to samples and standard and samples were incubated for 2 hours at room temperature on a horizontal orbital shaker (800 rpm). Plate was washed 3× in washing buffer using a magnetic plate. Biotin-antibody was added and incubated dark for 1 hour at room temperature on a horizontal orbital shaker (800 rpm). Plate was washed 3× in washing buffer using a magnetic plate. Streptavidin-PE was added to each well and incubated dark at room temperature on a horizontal orbital shaker (800 rpm) for 30 minutes. Plate was washed 3× in washing buffer using a magnetic plate. Microparticles were resuspended in 100 μl washing buffer, incubated for 2 minutes on a horizontal orbital shaker (800 rpm). Samples were analysed on a Bio-Rad Luminex analyzer.

C[C@]12C=CC(=O)C=C1CC[C@@H]1[C@@H]2[C@@H](O)C[C@@]2(C)[C@H]1CC[C@]2(O)C(=O)CO [Prednisolone]
macrophage cell composition [1]: did not have an effect | effect on cytotoxic T cells (%) [2]: no effect | effect on T helper cells (%) ([2]; 72 hours of incubation): no effect | composition of T helper cells (% CD4+ lymphocytes or MFI of CD4+ lymphocytes) ([3]; 24 hours of incubation, vs control): higher levels | inhibition of T cell activation ([3]; 24 hours, CsA 10 μg/ml, Prednisolone 125 nM): only slightly inhibits | M1 expression levels [4]: no effect | M1 proliferation (CFSE) [4]: No effect | M2 expression levels [4]: no effect | M2 proliferation (CFSE) [4]: No effect | HGF level in supernatant [5]: inhibits | IL-6 level in supernatant [5]: inhibits | IL-12/IL-23 p40 level in supernatant [5]: inhibits | TNF-a level in supernatant [5]: inhibits | the other analysed cytokines, levels in supernatant [5]: No inhibitory effect
